Reference: US8716325B2, “Treatment of cachexia” (PsiOxus Therapeutics Limited, priority 2006, dated 2014)
Where two headings read alike, the source gives them in different places.

Columns and labels:
[1] = cited from earlier work
5-HT1a = biological target: T1, 5-HT1a (Rattus norvegicus, UniProt P19327); conditions: functional tests, Eur J Pharmacol. 1986; 128 (3): 295-8; cited from earlier work
T1 construct: suppressant effects of 5-HT1a agonists on dorsal raphe neuronal firing; host or cells: dorsal raphe neurons (endogenous receptor)
T1 sequence (P19327 1-422): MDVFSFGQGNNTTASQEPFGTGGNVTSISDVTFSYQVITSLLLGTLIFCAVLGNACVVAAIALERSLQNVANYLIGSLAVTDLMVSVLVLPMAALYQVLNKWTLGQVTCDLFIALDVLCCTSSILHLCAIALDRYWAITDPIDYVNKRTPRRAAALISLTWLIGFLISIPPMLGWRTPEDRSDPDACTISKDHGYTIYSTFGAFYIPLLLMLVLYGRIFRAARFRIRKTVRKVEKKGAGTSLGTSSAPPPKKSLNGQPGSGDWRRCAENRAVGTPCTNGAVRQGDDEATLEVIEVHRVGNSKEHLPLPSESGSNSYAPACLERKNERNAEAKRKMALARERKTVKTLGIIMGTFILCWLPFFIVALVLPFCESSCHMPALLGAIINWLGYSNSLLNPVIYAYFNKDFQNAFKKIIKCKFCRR

[2] = system: Ascites hepatoma Yoshida AH-130 cells; assay: Yoshida AH-130 ascites hepatoma rat model of cancer cachexia; type: in vivo, male Wistar rats; conditions: for Locomotor activity 24 h day 11: Supermex system, marker for fatigue; for Locomotor activity 24 h day 11 / Food intake day 11 / Lean tissue gain without tumour / Lean tissue without tumour / Weight gain without tumour / Body weight without tumour: mean±SEM; for Lean tissue gain without tumour / Lean tissue without tumour / Weight gain without tumour / Body weight without tumour: end of study; for Body weight without tumour: oral gavage, twice daily
Description: Ascites hepatoma Yoshida AH-130 cells (10^8 cells) are inoculated into 180-200 g male Wistar rats. Alternatively animals receive saline injection only (sham). The animals are housed in groups of three. The day after inoculation animals are randomized into various groups and then receive twice daily treatment with either placebo or compounds over a period of up to 17 days. The primary endpoints of the study include assessment of body weight, body composition (with and without tumour) and survival. Organ weight is assessed at the end of the study (or after death) as a secondary endpoint. In addition locomotor activity is used to assess fatigue using Supermex system (Muromachi, Tokyo, Japan) over a period of 24 hours in cages where the animals are placed individually (type 3 cage); missing data (if due to death) are imputed as ‘zero’ activity; a sensitivity analysis without imputed points is additionally performed. Food intake is also measured. Results are expressed as mean±SEM at the end of the study except where stated otherwise. Doses represent total daily dose given by oral gavage.

[3] = animal model of cancer cachexia, summary in words

## CC(C)NCC(O)COc1cccc2[nH]ccc12 (racemic) [racemic pindolol, pindolol, reference compound]
[1]; healthy subjects, similar dose of (S)-pindolol and racemic pindolol
  Effect on blood pressure: reducing diastolic blood pressure

## CC(C)NC[C@@H](O)COc1cccc2ccccc12 [(R)-propranolol, reference compound]
5-HT1a
  Block of the suppressant effects of 5-HT1a agonists on dorsal raphe neuronal firing: not

## CC(C)NC[C@H](O)COc1cccc2ccccc12 [(S)-propranolol, (S)-1-isopropylamino-3-(1-naphthyloxy)-2-propanol]
5-HT1a
  Block of the suppressant effects of 5-HT1a agonists on dorsal raphe neuronal firing: blocked the suppressant effects

## CC(C)NCC(O)COc1ccc(COCCOC(C)C)cc1 (centres unmarked) [Bisoprolol, reference compound]
[2]; 5 mg/kg/d oral gavage
  Locomotor activity 24 h day 11: 315 ± 58
  Food intake day 11: 16.00 ± 3.07 g
  Lean tissue gain without tumour: -1.38 ± 11.31 g
  Lean tissue without tumour: 158.10 ± 11.86 g
  Weight gain without tumour: -5.46 ± 15.95 g
[2]; 5 mg/kg/d total daily dose
  Body weight without tumour: 202.0 ± 16.04 g
[2]; 50 mg/kg/d oral gavage
  Locomotor activity 24 h day 11: 277 ± 39
  Food intake day 11: 9.94 ± 2.10 g
  Lean tissue gain without tumour: -28.96 ± 6.64 g
  Lean tissue without tumour: 124.77 ± 7.17 g
  Weight gain without tumour: -30.30 ± 10.95 g
[2]; 50 mg/kg/d total daily dose
  Body weight without tumour: 159.18 ± 9.64 g
[2]; [3]
  Effect on locomotor activity, as a marker for fatigue: neutral to negative

## CC(C)NC[C@H](O)COc1cccc2[nH]ccc12 [S-pindolol, S-(−)-1-(1H-indol-4-yloxy)-3-(1-methylethylamino)propan-2-ol]
[2]; 0.3 mg/kg/d oral gavage
  Locomotor activity 24 h day 11: 361 ± 38
  Food intake day 11: 7.75 ± 5.22 g
  Lean tissue gain without tumour: -1.17 ± 15.84 g
  Lean tissue without tumour: 152.37 ± 15.47 g
  Weight gain without tumour: -8.50 ± 19.19 g
[2]; 0.3 mg/kg/d total daily dose
  Body weight without tumour: 178.89 ± 17.04 g
[2]; 3 mg/kg/d oral gavage
  Locomotor activity 24 h day 11: 368 ± 50
  Food intake day 11: 15.33 ± 3.84 g
  Lean tissue gain without tumour: 18.90 ± 16.06 g
  Lean tissue without tumour: 171.99 ± 15.92 g
  Weight gain without tumour: 17.30 ± 20.08 g
[2]; 3 mg/kg/d total daily dose
  Body weight without tumour: 215.10 ± 19.89 g
[2]; [3]
  Effect on cachectic weight loss: able to reduce cachectic weight loss
  Effect on locomotor activity, as a marker for fatigue: positive effect on locomotor activity
  Effect on tumour weight: reducing the tumour weight
[1]; in vivo
  Effect on blood pressure: no alteration in blood pressure in a majority of healthy subjects
